Laboratory results: the supplement of paper PMC10307832

Assays:
Assay in all cases: relative viability (nuclei count vs DMSO), 5 days (fraction); higher = more cells survive
NCI-H1755 = system: NCI-H1755
How it was run: (§1)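 Five library-drug doses in √10 steps were combined with a fixed anchor-drug dose, or a single drug was given alone, by pin tool to lung cancer cell lines in 1536-well plates the day after seeding. Nuclei were stained and counted after 5 days. Relative viability is the nuclei count in treated wells over that in vehicle wells, taken as the median of duplicate plates.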

NCI-H1793 = system: NCI-H1793
How it was run: as §1

NCI-H1944 = system: NCI-H1944
How it was run: as §1

NCI-H2087 = system: NCI-H2087
How it was run: as §1

NCI-H2170 = system: NCI-H2170
How it was run: as §1

NCI-H2228 = system: NCI-H2228
How it was run: as §1

NCI-H2405 = system: NCI-H2405
How it was run: as §1

NCI-H3122 = system: NCI-H3122
How it was run: as §1

NCI-H460 = system: NCI-H460
How it was run: as §1

PC-3 [JPC-3] = system: PC-3 [JPC-3]
How it was run: as §1

RERF-LC-KJ = system: RERF-LC-KJ
How it was run: as §1

UMC-11 = system: UMC-11
How it was run: as §1

SMILES: NC(=O)Nc1cc(-c2cccc(F)c2)sc1C(=O)N[C@H]1CCCNC1 [AZD7762] + CS(=O)(=O)N1CCN(Cc2cc3nc(-c4cccc5[nH]ncc45)nc(N4CCOCC4)c3s2)CC1 [Pictilisib] (partner 1 µM)
- relative viability (NCI-H1755; first compound 0.1 µM): 0.406
- relative viability (NCI-H1755; first compound 0.3162 µM): 0.397
- relative viability (NCI-H1755; first compound 1 µM): 0.241
- relative viability (NCI-H1793; first compound 0.01 µM): 0.388
- relative viability (NCI-H1793; first compound 0.03162 µM): 0.371
- relative viability (NCI-H1793; first compound 0.1 µM): 0.336
- relative viability (NCI-H1793; first compound 0.3162 µM): 0.278
- relative viability (NCI-H1793; first compound 1 µM): 0.224
- relative viability (NCI-H1944; first compound 0.01 µM): 0.333
- relative viability (NCI-H1944; first compound 0.03162 µM): 0.395
- relative viability (NCI-H1944; first compound 0.1 µM): 0.4
- relative viability (NCI-H1944; first compound 0.3162 µM): 0.363
- relative viability (NCI-H1944; first compound 1 µM): 0.389
- relative viability (NCI-H2087; first compound 0.01 µM): 0.982
- relative viability (NCI-H2087; first compound 0.03162 µM): 0.902
- relative viability (NCI-H2087; first compound 0.1 µM): 1.23
- relative viability (NCI-H2087; first compound 0.3162 µM): 1.31
- relative viability (NCI-H2087; first compound 1 µM): 1.09
- relative viability (NCI-H2170; first compound 0.01 µM): 0.322
- relative viability (NCI-H2170; first compound 0.03162 µM): 0.338
- relative viability (NCI-H2170; first compound 0.1 µM): 0.326
- relative viability (NCI-H2170; first compound 0.3162 µM): 0.292
- relative viability (NCI-H2170; first compound 1 µM): 0.247
- relative viability (NCI-H2228; first compound 0.01 µM): 0.381
- relative viability (NCI-H2228; first compound 0.03162 µM): 0.539
- relative viability (NCI-H2228; first compound 0.1 µM): 0.396
- relative viability (NCI-H2228; first compound 0.3162 µM): 0.21
- relative viability (NCI-H2228; first compound 1 µM): 0.136
- relative viability (NCI-H2405; first compound 0.01 µM): 0.457
- relative viability (NCI-H2405; first compound 0.03162 µM): 0.559
- relative viability (NCI-H2405; first compound 0.1 µM): 0.382
- relative viability (NCI-H2405; first compound 0.3162 µM): 0.291
- relative viability (NCI-H2405; first compound 1 µM): 0.22
- relative viability (NCI-H3122; first compound 0.01 µM): 0.623
- relative viability (NCI-H3122; first compound 0.03162 µM): 0.646
- relative viability (NCI-H3122; first compound 0.1 µM): 0.638
- relative viability (NCI-H3122; first compound 0.3162 µM): 0.333
- relative viability (NCI-H3122; first compound 1 µM): 0.332
- relative viability (NCI-H460; first compound 0.01 µM): 0.356
- relative viability (NCI-H460; first compound 0.03162 µM): 0.382
- relative viability (NCI-H460; first compound 0.1 µM): 0.417
- relative viability (NCI-H460; first compound 0.3162 µM): 0.342
- relative viability (NCI-H460; first compound 1 µM): 0.175
- relative viability (PC-3 [JPC-3]; first compound 0.01 µM): 0.774
- relative viability (PC-3 [JPC-3]; first compound 0.03162 µM): 0.793
- relative viability (PC-3 [JPC-3]; first compound 0.1 µM): 0.779
- relative viability (PC-3 [JPC-3]; first compound 0.3162 µM): 0.705
- relative viability (PC-3 [JPC-3]; first compound 1 µM): 0.448
- relative viability (RERF-LC-KJ; first compound 0.01 µM): 0.521
- relative viability (RERF-LC-KJ; first compound 0.03162 µM): 0.616
- relative viability (RERF-LC-KJ; first compound 0.1 µM): 0.521
- relative viability (RERF-LC-KJ; first compound 0.3162 µM): 0.6
- relative viability (RERF-LC-KJ; first compound 1 µM): 0.431
- relative viability (UMC-11; first compound 0.01 µM): 0.753
- relative viability (UMC-11; first compound 0.03162 µM): 0.768
- relative viability (UMC-11; first compound 0.1 µM): 0.848
- relative viability (UMC-11; first compound 0.3162 µM): 0.679
- relative viability (UMC-11; first compound 1 µM): 0.393
